The test system of series [1] is carrageenan-induced rat-paw edema. Put plainly: carrageenan-induced rat paw edema method. The format is in vivo. To be noted: for antiinflammatory activity (in words): carrageenan-induced rat paw edema, 100 mg/kg; for % PROTECTION: Table 3, all compounds screened at 100 mg/kg body weight. The protocol:
(§1) Phenyl isothiocyanate was procured from Lancaster. Methyl isothiocyanate was gift sample from Hitesh Chemicals and Drugs Pvt Ltd, Hyderabad, India. Benzoylisothiocyanate, methoxycarbonyl isothiocyanate, ethoxy carbonyl isothiocyanate, N,N-diethyl actamidine, N,N-diethyl benzamidine, N,N-diethylphenyl acetamidine and 1,4-dibromo butane 2,3-dione were prepared in our lab following the reported procedures. Carrageenin was procured from Spectrochem India limited. HIV-1 integrase assay was done at Department of Pharmaceutical Sciences, School of Pharmacy, University of Southern California, Los Angeles, USA[18]. The reported protocol was followed for carrageenin-induced rat paw edema method[19] for evaluation of antiinflammatory activity. All compounds were screened in a group of 6 animals at dose of 100 mg/kg body weight of the animal. The experimental protocol was approved by the institutional animal ethics committee, constituted as per CPCSEA, Government of India.
For orientation: In the carrageenan paw model, swelling and tenderness develop within hours.

The next series concerns the target T1, HIV-1 integrase (Human immunodeficiency virus type 1 group M subtype B, UniProt P12497).
T1 construct: […]; AS MEASURED IN AN EXT[…]-1 INTEGRASE ASSAY
Put plainly: extracellular HIV-1 integrase assay (3'-processing and strand transfer). The format is biochemical.
Text: Integrase (IN) has emerged as an attractive target, because it is necessary for stable infection and homologous enzymes are lacking in the human host[11]. The function of IN is to catalyze integration of proviral DNA, resulting from the reverse transcription of viral RNA, into the host genome. This is achieved in a stepwise fashion by endonucleolytic processing of proviral DNA within a cytoplasmic preintegration complex (termed 3' P-processing or “3'-P”), followed by translocation of the complex into the nuclear compartment where integration of 3'-processed proviral DNA into host DNA occurs in a “strand transfer” (ST) reaction. […] (fig. 1B)[1112]. The presence of diketo pharmacophore in the synthesized compounds made us to screen these compounds in a HIV-1 integrase inhibitory assay.
as §1

A further series addresses T2, cPLA2 (Homo sapiens, UniProt P47712).
T2 sequence (P47712 1-749): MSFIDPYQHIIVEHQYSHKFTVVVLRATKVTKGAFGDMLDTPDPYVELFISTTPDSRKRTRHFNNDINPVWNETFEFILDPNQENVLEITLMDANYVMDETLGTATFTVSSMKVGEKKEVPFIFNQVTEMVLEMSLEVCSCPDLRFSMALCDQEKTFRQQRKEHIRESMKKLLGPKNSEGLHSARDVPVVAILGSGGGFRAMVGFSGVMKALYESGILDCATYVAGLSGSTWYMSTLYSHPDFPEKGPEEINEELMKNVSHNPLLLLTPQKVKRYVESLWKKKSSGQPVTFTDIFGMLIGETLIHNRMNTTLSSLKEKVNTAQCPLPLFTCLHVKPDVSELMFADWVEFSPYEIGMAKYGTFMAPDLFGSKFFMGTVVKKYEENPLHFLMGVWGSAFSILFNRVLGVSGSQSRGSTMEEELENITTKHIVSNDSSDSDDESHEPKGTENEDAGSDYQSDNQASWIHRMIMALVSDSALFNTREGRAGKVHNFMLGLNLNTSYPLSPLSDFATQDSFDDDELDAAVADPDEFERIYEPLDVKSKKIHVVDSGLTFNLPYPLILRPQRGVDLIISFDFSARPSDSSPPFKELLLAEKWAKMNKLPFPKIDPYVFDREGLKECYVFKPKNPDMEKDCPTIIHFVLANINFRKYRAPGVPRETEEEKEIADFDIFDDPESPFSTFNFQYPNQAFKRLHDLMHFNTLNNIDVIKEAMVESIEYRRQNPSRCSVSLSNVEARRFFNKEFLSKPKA
Put plainly: cPLA2 inhibition. The format is biochemical.

In series [2] the test system is TNF-α release from human peripheral blood mononuclear cells. Put plainly: TNF-α release from human peripheral blood mononuclear cells. The format is cell-based.
Where [3] appears, read: 100 mg/kg b.w, rat paw edema, group of 6 animals, read-out: % PROTECTION Dose 100 mg/kg b.w.
[4] abbreviates: 3'-processing step, read-out: 3'P inhibitory potency.
[5] abbreviates: strand transfer step, read-out: ST inhibitory potency.
The mark [6] stands for this setting: Rattus norvegicus, 100 mg/kg body weight, read-out: protection in the carrageenan rat paw model.
Setting [7] is: rat paw edema, group of 6 animals.

Experimental findings from paper PMC2865783, “Synthesis, Antiinflammatory and HIV-1 Integrase Inhibitory Activities of 1,2-Bis[5-thiazolyl]ethane-1,2-dione Derivatives” (Indian Journal of Pharmaceutical Sciences, 2009) are described below.

As usually defined, the melting point is the temperature, or range, at which the solid turns liquid.

Where two headings read alike, the source gives them in different places.

`CNc1nc(C)c(C(=O)C(=O)c2sc(NC)nc2C)s1` [G-1]: the inhibition in vivo at 100 mg/kg in series [1] (setting [3]) was determined as 14 ± 7%.

For `Cc1nc(Nc2ccccc2)sc1C(=O)C(=O)c1sc(Nc2ccccc2)nc1C` [G-2], the inhibition in vivo at 100 mg/kg in series [1] (setting [3]) was determined as 23 ± 8%.

For `Cc1nc(Nc2ccc(Cl)cc2)sc1C(=O)C(=O)c1sc(Nc2ccc(Cl)cc2)nc1C` [G-3], the IC50 turned out to be 132 µM at HIV-1 integrase (setting [4]) and 397 µM on HIV-1 integrase (setting [5]). Besides, the inhibition in vivo at 100 mg/kg in series [1] (setting [3]) came to 73 ± 0.3%.

Regarding `COC(=O)Nc1nc(C)c(C(=O)C(=O)c2sc(NC(=O)OC)nc2C)s1` [G-4], the inhibition in vivo at 100 mg/kg in series [1] (setting [3]) amounted to 40 ± 2%.

For `CCOC(=O)Nc1nc(C)c(C(=O)C(=O)c2sc(NC(=O)OCC)nc2C)s1` [G-5], in series [1] (setting [3]), the inhibition in vivo at 100 mg/kg was determined as 33 ± 0.9%.

As for `O=C(Nc1nc(-c2ccccc2)c(C(=O)C(=O)c2sc(NC(=O)c3ccccc3)nc2-c2ccccc2)s1)c1ccccc1` [G-6], the melting point lay in the range of 234 to 236 °C. For the same compound, at cPLA2, the “cPLA2 inhibition (in words)” value is reported as “weakly inhibited”. Further, the IC50 on HIV-1 integrase (setting [4]) was > 500 µM. The IC50 at HIV-1 integrase (setting [5]) was found to be 277 µM. The inhibition in vivo at 100 mg/kg in series [1] (setting [3]) was determined as 74 ± 0.5%. Besides, the inhibition in vivo at 100 mg/kg in series [1] (setting [6]) is > 50%. For the same compound, in series [2], the “effect on TNF-α release” value is recorded as “did not have any effect”.

Turning to `O=C(C(=O)c1sc(Nc2ccccc2)nc1-c1ccccc1)c1sc(Nc2ccccc2)nc1-c1ccccc1` [G-7], the inhibition in vivo at 100 mg/kg in series [1] (setting [3]) is 70 ± 0.7%; in series [1] (setting [6]) it was > 50%. The “antiinflammatory activity (in words)” value in series [1] is “good antiinflammatory activity”.

On to `O=C(C(=O)c1sc(Nc2ccc(Cl)cc2)nc1-c1ccccc1)c1sc(Nc2ccc(Cl)cc2)nc1-c1ccccc1` [G-8], for which the results for the inhibition in vivo at 100 mg/kg in series [1] (setting [3]) and in series [1] (setting [6]) were 66 ± 1% and > 50%, respectively.

`COC(=O)Nc1nc(-c2ccccc2)c(C(=O)C(=O)c2sc(NC(=O)OC)nc2-c2ccccc2)s1` [G-9]: in series [1] (setting [3]), the inhibition in vivo at 100 mg/kg came to 26 ± 3%.

Take `CCOC(=O)Nc1nc(-c2ccccc2)c(C(=O)C(=O)c2sc(NC(=O)OCC)nc2-c2ccccc2)s1` [G-10]: in series [1] (setting [3]), the inhibition in vivo at 100 mg/kg was determined as 34 ± 4%.

As for `O=C(C(=O)c1sc(Nc2ccccc2)nc1Cc1ccccc1)c1sc(Nc2ccccc2)nc1Cc1ccccc1` [G-11], the inhibition in vivo at 100 mg/kg in series [1] (setting [3]) was determined as 23 ± 2%.

For the compound `O=C(C(=O)c1sc(Nc2ccc(Cl)cc2)nc1Cc1ccccc1)c1sc(Nc2ccc(Cl)cc2)nc1Cc1ccccc1` [G-12], the inhibition in vivo at 100 mg/kg in series [1] (setting [3]) is 72 ± 1%; in series [1] (setting [6]) it was > 50%. In addition, in series [1], the “antiinflammatory activity (in words)” value is “good antiinflammatory activity”.

In the case of `COC(=O)Nc1nc(Cc2ccccc2)c(C(=O)C(=O)c2sc(NC(=O)OC)nc2Cc2ccccc2)s1` [G-13], the inhibition in vivo at 100 mg/kg in series [1] (setting [3]) stood at 35 ± 2.5%.

As for `CCOC(=O)Nc1nc(Cc2ccccc2)c(C(=O)C(=O)c2sc(NC(=O)OCC)nc2Cc2ccccc2)s1` [G-14], the inhibition in vivo at 100 mg/kg in series [1] (setting [3]) was 38 ± 2%.

`O=C(Nc1nc(Cc2ccccc2)c(C(=O)C(=O)c2sc(NC(=O)c3ccccc3)nc2Cc2ccccc2)s1)c1ccccc1` [G-15]: in series [1] (setting [3]), the inhibition in vivo at 100 mg/kg came to 47 ± 2.3%.

For `O=C(C(=O)c1sc(N2CCCCC2)nc1-c1ccccc1)c1sc(N2CCCCC2)nc1-c1ccccc1` [G-16], the inhibition in vivo at 100 mg/kg in series [1] (setting [6]) is > 50%. For the same compound, in series [1] (setting [7]), the “% PROTECTION” value turned out to be 65±0.8%.

`O=C(C(=O)c1sc(N2CCOCC2)nc1-c1ccccc1)c1sc(N2CCOCC2)nc1-c1ccccc1` [G-17]: the IC50 on HIV-1 integrase (setting [4]) was > 500 µM; at HIV-1 integrase (setting [5]), 109 µM. The inhibition in vivo at 100 mg/kg in series [1] (setting [6]) was > 50%. The “% PROTECTION” value in series [1] (setting [7]) was 81±0.5%. Also, the “effect on TNF-α release” value in series [2] was “did not have any effect”.

Regarding `CN1CCN(c2nc(-c3ccccc3)c(C(=O)C(=O)c3sc(N4CCN(C)CC4)nc3-c3ccccc3)s2)CC1` [G-18], in series [1] (setting [6]), the inhibition in vivo at 100 mg/kg is > 50%. The “% PROTECTION” value in series [1] (setting [7]) came to 60±0.5%.

For the compound `CCN1CCN(c2nc(-c3ccccc3)c(C(=O)C(=O)c3sc(N4CCN(CC)CC4)nc3-c3ccccc3)s2)CC1` [G-19], the inhibition in vivo at 100 mg/kg in series [1] (setting [6]) is > 50%. In addition, in series [1] (setting [7]), the “% PROTECTION” value was 72±0.5%. Also, in series [2], the “effect on TNF-α release” value is “did not have any effect”.

As for `O=C(C(=O)c1sc(N2CCN(c3ccccc3)CC2)nc1-c1ccccc1)c1sc(N2CCN(c3ccccc3)CC2)nc1-c1ccccc1` [G-20], the IC50 on HIV-1 integrase (setting [4]) turned out to be 122 µM; at HIV-1 integrase (setting [5]) it was 87 µM. In addition, the inhibition in vivo at 100 mg/kg in series [1] (setting [6]) was > 50%. Further, the “% PROTECTION” value in series [1] (setting [7]) is listed as 55±4%.

As for `O=C(C(=O)c1sc(N2CCN(Cc3ccccc3)CC2)nc1-c1ccccc1)c1sc(N2CCN(Cc3ccccc3)CC2)nc1-c1ccccc1` [G-21], the inhibition in vivo at 100 mg/kg in series [1] (setting [6]) was > 50%. Moreover, the “% PROTECTION” value in series [1] (setting [7]) came out at 85±0.3%.
